Laboratory results published in patent US20100249132A1, “IMIDAZOLE DERIVATIVES” (MERCK PATENT GESELLSCHAFT MIT BESCHRANKTER HAFTUNG, priority 2007, published 2010).

Biological target: T1, recombinant autotaxin (Homo sapiens, UniProt Q13822)
T1 construct: made in house; host or cells: Hi5 insect cells (baculovirus)
Assay: Autotaxin test (enzyme test), Amplex Red fluorescence
Assay type: biochemical
Conditions: substrate LPC 75 μM, Amplex Red detection, read-out: IC50 (autotaxin inhibition, enzyme test)
Experimental: Autotaxin Inhibition (Enzyme Test)
Autotaxin Test (Enzyme Test)
The autotaxin activity is measured indirectly using Amplex Red reagent. Amplex Red is measured here as fluorogenic indicator for the H2O2 formed. In detail, autotaxin converts the substrate lysophosphatidylcholine (LPC) into phosphocholine and lysophosphatidylic acid (LPA). After this reaction, the phosphocholine is reacted with alkaline phosphatase to give inorganic phosphate and choline. In the next step, choline is oxidised by choline oxidase to give betaine, with formation of H2O2. H2O2 reacts with Amplex Red reagent in the presence of peroxidase (horseradish peroxidase) in a 1:1 stoichiometry and forms the highly fluorescent resorufin. The fluorescence is measured in a reaction-dependent kinetic mode in order that fluorescent signals from possible other fluorescent substances which are not involved in the reaction can be corrected out.
1.5 μl of a standard solution or of the test substances (substances with the name A(n)) in individual concentrations dissolved in 20 mM Hepes pH 7.2 with a maximum of 7.7% of DMSO are pre-incubated together with 10 μl (16 ng) of highly purified recombinant autotaxin in a black microtitre plate provided with 384 wells at 22° C. for 30 min. The reaction is then initiated by addition of 5 μl of L-α-lysophosphatidylcholine (LPC), where the final concentration of LPC is 75 μM. The mixture is incubated at 37° C. for 90 min. After the incubation, Amplex Red reagent, peroxidase (horseradish peroxidase) and choline oxidase is added, and the fluorescence is immediately measured at 612 nm with excitation of 485 nm in a “Tecan Ultra multimode” reader. The activity of autotaxin is calculated indirectly via detection of the H2O2 formed. • Material: • Microtitre plate: PS microplate, 384 wells, small volume, black Corning, Cat #3677 • Protein: recombinant autotaxin (Baculovirale Hi5 Expression) • Substrate: L-α-lysophosphatidylcholine (chicken egg)); Avanti Polar Lipids #830071 P • Standard: C14 LPA, Avanti Polar Lipids, Cat #857120P • Detection reagent: Amplex Red reagent; Invitrogen #A12222; dissolved in 1.923 ml of DMSO peroxidase type VI-A (horseradish) from Sigma #P6782; dissolved in 7.45 ml of test buffer, choline oxidase; Sigma #C5896; dissolved in 2.47 ml of test buffer • Detection reagent mix: 1:100 dilution of Amplex Red reagent in test buffer • Test buffer: 200 mM Tris HCl, Merck, Cat #1.08219, pH 7.9, 0.1% of BSA, lipid-free, Roche Cat #775835

| Compound | IC50 [µM] |
| --- | --- |
| Cc1ccc(NC(=O)Nc2[nH]c(Cc3ccc(C(=O)O)s3)nc2C(N)=O)c(C)c1 [Compound A71, 5-{4-Carbamoyl-5-[3-(2,4-dimethylphenyl)-ureido]-1H-imidazol-2-ylmethyl}thiophene-2-carboxylic acid] | 1 to 10 |
| NC(=O)c1nc(Cc2ccc(OCC(=O)O)cc2)[nH]c1NC(=O)Nc1ccc(F)cc1 [Compound A36, (4-{4-Carbamoyl-5-[3-(4-fluorophenyl)ureido]-1H-imidazol-2-ylmethyl}phenoxy)acetic acid] | > 10 |
| CC(C)c1ccc(NC(=O)Nc2[nH]c(Cc3ccc(C(=O)O)o3)nc2C(N)=O)cc1 [Compound A12, 5-{4-Carbamoyl-5-[3-(4-isopropylphenyl)ureido]-1H-imidazol-2-ylmethyl}furan-2-carboxylic acid] | 1 to 10 |
| CC(C)c1ccc(NC(=O)Nc2[nH]c(-c3ccc(CC(=O)O)cc3)nc2C(N)=O)cc1 [Compound A23, (4-{4-Carbamoyl-5-[3-(4-isopropylphenyl)ureido]-1H-imidazol-2-yl}phenyl)acetic acid] | > 10 |
| NC(=O)c1nc(COc2ccc(CC(=O)O)cc2)[nH]c1NC(=O)Nc1ccc(C(F)(F)F)cc1 [Compound A56, (4-{4-Carbamoyl-5-[3-(4-trifluoromethylphenyl)-ureido]-1H-imidazol-2-ylmethoxy}phenyl)acetic acid] | 1 to 10 |
| CCCCCc1ccc(NC(=O)Nc2[nH]c(Cc3ccc(OCC(=O)O)cc3)nc2C(N)=O)cc1 [Compound A43, (4-{4-Carbamoyl-5-[3-(4-pentylphenyl)ureido]-1 H-imidazol-2-ylmethyl}phenoxy)acetic acid] | 1 to 10 |
| NC(=O)c1nc(Cc2ccc(N)cc2)[nH]c1NC(=O)Nc1ccc(C(F)(F)F)cc1 [Compound A97, 2-(4-aminobenzyl)-5-[3-(4-trifluoromethylphenyl)-ureido]-1H-imidazole-4-carboxamide] | 1 to 10 |
| NC(=O)c1nc(Cc2ccc(OCC(=O)O)cc2)[nH]c1NC(=O)Nc1cc(C(F)(F)F)ccc1F [Compound A44, (4-{4-Carbamoyl-5-[3-(2-fluoro-5-trifluoromethyl-phenyl)ureido]-1H-imidazol-2-ylmethyl}phenoxy)-acetic acid] | > 10 |
| CC(C)(CCc1nc(C(N)=O)c(NC(=O)Nc2ccc(Cl)cc2)[nH]1)C(=O)O [Compound B75] | > 10 |
| CCCCc1ccc(NC(=O)Nc2[nH]c(Cc3ccc(C(=O)N4CCC(C)CC4)o3)nc2C(N)=O)cc1 [Compound A87, 5-[3-(4-Butylphenyl)ureido]-2-[5-(4-methyl-piperidine-1-carbonyl)furan-2-ylmethyl]-1H-imidazole-4-carboxamide] | > 10 |
| CCc1ccc(NC(=O)Nc2[nH]c(Cc3ccc(C(=O)O)cc3)nc2C(N)=O)cc1 [Compound A7, 4-{4-Carbamoyl-5-[3-(4-ethylphenyl)ureido]-1H imidazol-2-ylmethyl}benzoic acid] | 1 to 10 |
| COC(=O)c1ccc(Cc2nc(C(N)=O)c(NC(=O)Nc3ccc(OC(F)(F)F)cc3)[nH]2)cc1 [Compound A99, Methyl 4-{4-carbamoyl-5-[3-(4-trifluoromethoxy-phenyl)ureido]-1H-imidazol-2-ylmethyl}benzoate] | > 10 |
| NC(=O)c1nc(-c2ccc(OCC(=O)O)cc2)[nH]c1NC(=O)Nc1cc(C(F)(F)F)ccc1F [Compound A55, (4-{4-Carbamoyl-5-[3-(2-fluoro-5-trifluoromethyl-phenyl)ureido]-1H-imidazol-2-yl}phenoxy)acetic acid] | 1 to 10 |
| CCc1ccc(NC(=O)Nc2[nH]c(-c3ccc(OCC(=O)O)cc3)nc2C(N)=O)cc1 [Compound A54, (4-{4-Carbamoyl-5-[3-(4-ethylphenyl)ureido]-1H-imidazol-2-yl}phenoxy)acetic acid] | 1 to 10 |
| Cc1ccc(NC(=O)Nc2[nH]c(Cc3ccc(C(=O)O)o3)nc2C(N)=O)c(C)c1 [Compound A14, 5-{4-Carbamoyl-5-[3-(2,4-dimethylphenyl)-ureido]-1H-imidazol-2-ylmethyl}furan-2-carboxylic acid] | > 10 |
| NC(=O)c1nc(Cc2ccc([N+](=O)[O-])cc2)[nH]c1NC(=O)Nc1ccc(C(F)(F)F)cc1 [Compound A96, 2-(4-Nitrobenzyl)-5-[3-(4-trifluoromethylphenyl)-ureido]-1H-imidazole-4-carboxamide] | > 10 |

| Compound | IC50 [µM] |
| --- | --- |
| CC(C)c1ccc(NC(=O)Nc2[nH]c(Cc3ccc(OCC(=O)O)cc3)nc2C(N)=O)cc1 [Compound A1, (4-{4-carbamoyl-5-[3-(4-isopropylphenyl)ureido]-1H-imidazol-2-ylmethyl}phenoxy)acetic acid] | 1 to 10 |
| CCCCc1ccc(NC(=O)Nc2[nH]c(Cc3ccc(C(=O)N(CCCC)CCCC)o3)nc2C(N)=O)cc1 [Compound A80, 5-[3-(4-Butylphenyl)ureido]-2-(5-dibutyl-carbamoylfuran-2-ylmethyl)-1H-imidazole-4-carboxamide] | > 10 |
| NC(=O)c1nc(Cc2ccc(C(=O)O)cc2)[nH]c1NC(=O)Nc1ccc(C(F)(F)F)cc1 [Compound A15, 4-{4-Carbamoyl-5-[3-(4-tritluoromethylphenyl)-ureido]-1H-imidazol-2-ylmethyl}benzoic acid] | 1 to 10 |
| NC(=O)c1nc(Cc2ccc(OCC(=O)O)cc2)[nH]c1NC(=O)Nc1ccc(Cl)cc1 [Compound A41, (4-{4-Carbamoyl-5-[3-(4-chlorophenyl)ureido]-1H-imidazol-2-ylmethyl}phenoxy)acetic acid] | 1 to 10 |
| 5-[3-(4-Butylphenyl)ureido]-2-(5-cyclopropyl-carbamoylfuran-2-ylmethyl)-1H-imidazole-4-carboxamide [Compound A89] | > 10 |
| COC(=O)c1ccc(Cc2nc(C(N)=O)c(NC(=O)Nc3ccc(C(F)(F)F)cc3)[nH]2)cc1 [Compound A98, Methyl 4-{4-carbamoyl-5-[3-(4-trifluoromethyl-phenyl)ureido]-1H-imidazol-2-ylmethyl}benzoate] | > 10 |
| CCCCOc1ccc(NC(=O)Nc2[nH]c(Cc3ccc(C(=O)O)cc3)nc2C(N)=O)cc1 [Compound A9, 4-{5-[3-(4-Butoxyphenyl)ureido]-4-carbamoyl-1H-imidazol-2-ylmethyl}benzoic acid] | 1 to 10 |
| NC(=O)c1nc(-c2ccc(OCC(=O)O)cc2)[nH]c1NC(=O)Nc1ccc(F)cc1 [Compound A46, (4-{4-Carbamoyl-5-[3-(4-fluorophenyl)ureido]-1H-imidazol-2-yl}phenoxy)acetic acid] | > 10 |
| Cc1ccc(NC(=O)Nc2[nH]c(Cc3ccc(C(=O)O)cc3)nc2C(N)=O)cc1 [Compound A5, 4-[4-Carbamoyl-5-(3-p-tolylureido)-1H-imidazol 2-ylmethyl]benzoic acid] | > 10 |
| CCCCc1ccc(NC(=O)Nc2[nH]c(Cc3ccc(C(=O)N(C)CCC)o3)nc2C(N)=O)cc1 [Compound A90, 5-[3-(4-Butylphenyl)ureido]-2-[5-(methylpropyl-carbamoyl)furan-2-ylmethyl]-1H-imidazole-4-carboxamide] | > 10 |
| CCCCc1ccc(NC(=O)Nc2[nH]c(Cc3ccc(C(=O)N4CCCCC4)o3)nc2C(N)=O)cc1 [Compound A88, 5-[3-(4-Butylphenyl)ureido]-2-[5-(piperidine-1-carbonyl)furan-2-ylmethyl]-1H-imidazole-4-carboxamide] | > 10 |
| NC(=O)c1nc(-c2ccc(OCC(=O)O)cc2)[nH]c1NC(=O)Nc1ccc(C(F)(F)F)cc1 [Compound A50, (4-{4-Carbamoyl-5-[3-(4-trifluoromethylphenyl)-ureido]-1H-imidazol-2-yl}phenoxy)acetic acid] | 1 to 10 |
| Cc1ccccc1NC(=O)Nc1[nH]c(Cc2ccc(C(=O)O)s2)nc1C(N)=O [Compound A67, 5-[4-Carbamoyl-5-(3-o-tolylureido)-1H-imidazol 2-ylmethyl]thiophene-2-carboxylic acid] | > 10 |
| CCCCc1ccc(NC(=O)Nc2[nH]c(Cc3ccc(C(=O)N(CC)CC)o3)nc2C(N)=O)cc1 [Compound A78, 5-[3-(4-Butylphenyl)ureido]-2-(5-diethyl-carbamoylfuran-2-ylmethyl)-1H-imidazole-4-carboxamide] | > 10 |
| Cc1ccc(NC(=O)Nc2[nH]c(COc3ccc(CC(=O)O)cc3)nc2C(N)=O)c(C)c1 [Compound A60, (4-{4-Carbamoyl-5-[3-(2,4-dimethylphenyl)-ureido]-1H-imidazol-2-ylmethoxy}phenyl)acetic acid] | 1 to 10 |
